“And” between values parts separate entries of the source, which are not always exact repeats. Equal values may be shown once.
System: naturally-occurring algae from water samples of the Clinch River
Format: cell-based, naturally occurring freshwater algae

COP(=S)(OC)Oc1ccc([N+](=O)[O-])cc1 [MPt, Methyl Parathion]
Percentage (%) decrease in photochemical yield: −5.41% and −7.80% and −3.19%
